Measurements: the NIST ThermoML archive (doi:10.1021/je050416y)

Test: xn = mol fraction of the nth substance listed
Conditions: 101 kPa, Liquid; for mass density: Vibrating tube method

CCC(C)(C)O [2-methylbutan-2-ol] + CCO
Conditions | kinematic viscosity [m2/s] | mass density [kg/m3]
293.15 K, x1 = 0.0268 | – | 790.6
293.15 K, x1 = 0.0549 | – | 791.5
293.15 K, x1 = 0.0845 | – | 792.2
293.15 K, x1 = 0.0915 | 1.64e-06 | –
293.15 K, x1 = 0.1156 | – | 793
293.15 K, x1 = 0.1484 | – | 793.9
293.15 K, x1 = 0.1753 | 1.76e-06 | –
293.15 K, x1 = 0.183 | – | 794.8
293.15 K, x1 = 0.2524 | 1.89e-06 | –
293.15 K, x1 = 0.2584 | – | 797
293.15 K, x1 = 0.3235 | 2.04e-06 | –
293.15 K, x1 = 0.3433 | – | 799.5
293.15 K, x1 = 0.3894 | 2.19e-06 | –
293.15 K, x1 = 0.4395 | – | 802.4
293.15 K, x1 = 0.4505 | 2.35e-06 | –
293.15 K, x1 = 0.5495 | – | 805.3
293.15 K, x1 = 0.5605 | 2.69e-06 | –
293.15 K, x1 = 0.6567 | 3.07e-06 | –
293.15 K, x1 = 0.6765 | – | 808.3
293.15 K, x1 = 0.7416 | 3.46e-06 | –
293.15 K, x1 = 0.817 | 3.86e-06 | –
293.15 K, x1 = 0.8247 | – | 811.2
293.15 K, x1 = 0.8844 | 4.26e-06 | –
293.15 K, x1 = 0.9451 | 4.67e-06 | –
293.15 K, x1 = 1 | 5.11e-06 | 813.9
298.15 K, x1 = 0.0268 | – | 786.4
298.15 K, x1 = 0.0549 | – | 787.3
298.15 K, x1 = 0.0845 | – | 788.2
298.15 K, x1 = 0.0915 | 1.5e-06 | –
298.15 K, x1 = 0.1156 | – | 789.1
298.15 K, x1 = 0.1484 | – | 790
298.15 K, x1 = 0.1753 | 1.62e-06 | –
298.15 K, x1 = 0.183 | – | 791
298.15 K, x1 = 0.2524 | 1.74e-06 | –
298.15 K, x1 = 0.2584 | – | 793.3
298.15 K, x1 = 0.3235 | 1.86e-06 | –
298.15 K, x1 = 0.3433 | – | 795.9
298.15 K, x1 = 0.3894 | 1.99e-06 | –
298.15 K, x1 = 0.4395 | – | 798.8
298.15 K, x1 = 0.4505 | 2.13e-06 | –
298.15 K, x1 = 0.5495 | – | 801.8
298.15 K, x1 = 0.5605 | 2.43e-06 | –
298.15 K, x1 = 0.6567 | 2.76e-06 | –
298.15 K, x1 = 0.6765 | – | 804.8
298.15 K, x1 = 0.7416 | 3.1e-06 | –
298.15 K, x1 = 0.817 | 3.44e-06 | –
298.15 K, x1 = 0.8247 | – | 807.7
298.15 K, x1 = 0.8844 | 3.78e-06 | –
298.15 K, x1 = 0.9451 | 4.12e-06 | –
298.15 K, x1 = 1 | 4.47e-06 | 810.5
303.15 K, x1 = 0.0268 | – | 782.1
303.15 K, x1 = 0.0549 | – | 783.2
303.15 K, x1 = 0.0845 | – | 784.2
303.15 K, x1 = 0.0915 | 1.34e-06 | –
303.15 K, x1 = 0.1156 | – | 785.2
303.15 K, x1 = 0.1484 | – | 786.2
303.15 K, x1 = 0.1753 | 1.44e-06 | –
303.15 K, x1 = 0.183 | – | 787.3
303.15 K, x1 = 0.2524 | 1.55e-06 | –
303.15 K, x1 = 0.2584 | – | 789.7
303.15 K, x1 = 0.3235 | 1.66e-06 | –
303.15 K, x1 = 0.3433 | – | 792.3
303.15 K, x1 = 0.3894 | 1.78e-06 | –
303.15 K, x1 = 0.4395 | – | 795.2
303.15 K, x1 = 0.4505 | 1.91e-06 | –
303.15 K, x1 = 0.5495 | – | 798.2
303.15 K, x1 = 0.5605 | 2.17e-06 | –
303.15 K, x1 = 0.6567 | 2.45e-06 | –
303.15 K, x1 = 0.6765 | – | 801.3
303.15 K, x1 = 0.7416 | 2.74e-06 | –
303.15 K, x1 = 0.817 | 3.04e-06 | –
303.15 K, x1 = 0.8247 | – | 804.2
303.15 K, x1 = 0.8844 | 3.33e-06 | –
303.15 K, x1 = 0.9451 | 3.62e-06 | –
303.15 K, x1 = 1 | 3.91e-06 | 807
308.15 K, x1 = 0.0268 | – | 777.8
308.15 K, x1 = 0.0549 | – | 778.9
308.15 K, x1 = 0.0845 | – | 780
308.15 K, x1 = 0.0915 | 1.23e-06 | –
308.15 K, x1 = 0.1156 | – | 781.1
308.15 K, x1 = 0.1484 | – | 782.3
308.15 K, x1 = 0.1753 | 1.33e-06 | –
308.15 K, x1 = 0.183 | – | 783.4
308.15 K, x1 = 0.2524 | 1.42e-06 | –
308.15 K, x1 = 0.2584 | – | 785.9
308.15 K, x1 = 0.3235 | 1.52e-06 | –
308.15 K, x1 = 0.3433 | – | 788.6
308.15 K, x1 = 0.3894 | 1.62e-06 | –
308.15 K, x1 = 0.4395 | – | 791.5
308.15 K, x1 = 0.4505 | 1.72e-06 | –
308.15 K, x1 = 0.5495 | – | 794.6
308.15 K, x1 = 0.5605 | 1.95e-06 | –
308.15 K, x1 = 0.6567 | 2.19e-06 | –
308.15 K, x1 = 0.6765 | – | 797.6
308.15 K, x1 = 0.7416 | 2.43e-06 | –
308.15 K, x1 = 0.817 | 2.68e-06 | –
308.15 K, x1 = 0.8247 | – | 800.6
308.15 K, x1 = 0.8844 | 2.93e-06 | –
308.15 K, x1 = 0.9451 | 3.16e-06 | –
308.15 K, x1 = 1 | 3.39e-06 | 803.5
313.15 K, x1 = 0.0268 | – | 773.5
313.15 K, x1 = 0.0549 | – | 774.8
313.15 K, x1 = 0.0845 | – | 776
313.15 K, x1 = 0.0915 | 1.12e-06 | –
313.15 K, x1 = 0.1156 | – | 777.2
313.15 K, x1 = 0.1484 | – | 778.4
313.15 K, x1 = 0.1753 | 1.2e-06 | –
313.15 K, x1 = 0.183 | – | 779.6
313.15 K, x1 = 0.2524 | 1.29e-06 | –
313.15 K, x1 = 0.2584 | – | 782.2
313.15 K, x1 = 0.3235 | 1.37e-06 | –
313.15 K, x1 = 0.3433 | – | 784.9
313.15 K, x1 = 0.3894 | 1.46e-06 | –
313.15 K, x1 = 0.4395 | – | 787.9
313.15 K, x1 = 0.4505 | 1.55e-06 | –
313.15 K, x1 = 0.5495 | – | 790.9
313.15 K, x1 = 0.5605 | 1.74e-06 | –
313.15 K, x1 = 0.6567 | 1.94e-06 | –
313.15 K, x1 = 0.6765 | – | 794
313.15 K, x1 = 0.7416 | 2.14e-06 | –
313.15 K, x1 = 0.817 | 2.34e-06 | –
313.15 K, x1 = 0.8247 | – | 797.1
313.15 K, x1 = 0.8844 | 2.54e-06 | –
313.15 K, x1 = 0.9451 | 2.73e-06 | –
313.15 K, x1 = 1 | 2.91e-06 | 800
318.15 K, x1 = 0.0268 | – | 769.3
318.15 K, x1 = 0.0549 | – | 770.6
318.15 K, x1 = 0.0845 | – | 771.9
318.15 K, x1 = 0.0915 | 1.02e-06 | –
318.15 K, x1 = 0.1156 | – | 773.2
318.15 K, x1 = 0.1484 | – | 774.4
318.15 K, x1 = 0.1753 | 1.1e-06 | –
318.15 K, x1 = 0.183 | – | 775.7
318.15 K, x1 = 0.2524 | 1.18e-06 | –
318.15 K, x1 = 0.2584 | – | 778.4
318.15 K, x1 = 0.3235 | 1.25e-06 | –
318.15 K, x1 = 0.3433 | – | 781.2
318.15 K, x1 = 0.3894 | 1.33e-06 | –
318.15 K, x1 = 0.4395 | – | 784.2
318.15 K, x1 = 0.4505 | 1.41e-06 | –
318.15 K, x1 = 0.5495 | – | 787.3
318.15 K, x1 = 0.5605 | 1.57e-06 | –
318.15 K, x1 = 0.6567 | 1.73e-06 | –
318.15 K, x1 = 0.6765 | – | 790.5
318.15 K, x1 = 0.7416 | 1.9e-06 | –
318.15 K, x1 = 0.817 | 2.07e-06 | –
318.15 K, x1 = 0.8247 | – | 793.6
318.15 K, x1 = 0.8844 | 2.23e-06 | –
318.15 K, x1 = 0.9451 | 2.38e-06 | –
318.15 K, x1 = 1 | 2.52e-06 | 796.6
323.15 K, x1 = 0.0268 | – | 764.9
323.15 K, x1 = 0.0549 | – | 766.3
323.15 K, x1 = 0.0845 | – | 767.7
323.15 K, x1 = 0.0915 | 9.01e-07 | –
323.15 K, x1 = 0.1156 | – | 769.1
323.15 K, x1 = 0.1484 | – | 770.4
323.15 K, x1 = 0.1753 | 9.68e-07 | –
323.15 K, x1 = 0.183 | – | 771.8
323.15 K, x1 = 0.2524 | 1.03e-06 | –
323.15 K, x1 = 0.2584 | – | 774.6
323.15 K, x1 = 0.3235 | 1.09e-06 | –
323.15 K, x1 = 0.3433 | – | 777.5
323.15 K, x1 = 0.3894 | 1.16e-06 | –
323.15 K, x1 = 0.4395 | – | 780.5
323.15 K, x1 = 0.4505 | 1.22e-06 | –
323.15 K, x1 = 0.5495 | – | 783.7
323.15 K, x1 = 0.5605 | 1.35e-06 | –
323.15 K, x1 = 0.6567 | 1.49e-06 | –
323.15 K, x1 = 0.6765 | – | 787
323.15 K, x1 = 0.7416 | 1.62e-06 | –
323.15 K, x1 = 0.817 | 1.75e-06 | –
323.15 K, x1 = 0.8247 | – | 790.2
323.15 K, x1 = 0.8844 | 1.87e-06 | –
323.15 K, x1 = 0.9451 | 1.99e-06 | –
323.15 K, x1 = 1 | 2.09e-06 | 793.3
